Data reported in US7115658B2 (priority 2002, dated 2006).
Like-named read-outs stand apart in the source and are kept apart here.

Assays:
[1] = biological target: T1, Recombinant HCV polymerase (Hepatitis C virus genotype 1b, UniProt P26663); assay: HCV Polymerase Inhibition Assay; assay type: biochemical; conditions: primer/template-directed transcription, 30 minutes at 30° C.
T1 construct: 2.5 pmoles (0.15 μg) HCV polymerase protein
Summary of the method: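 Recombinant genotype 1b polymerase (2.5 pmol) extended biotin-dG12 on poly(rC)300 with 1 μM GTP plus α-32P-GTP, pH 7.2, 30 min at 30 °C, 1% DMSO final; DE-filter-bound product counted. IC50 fitted from triplicate cpm, refitted with enzyme-concentration (30 nM) tight-binding equation when below 200 nM.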

[2] = biological target: T2, NS5B, the RNA-dependent RNA polymerase (Hepatitis C virus genotype 1b, UniProt P26663); conditions: Ishii et al. 1999; cited from earlier work
T2 construct: NS5B, the RNA-dependent RNA polymerase, is also a useful viral target

pestivirus = conditions: Baginski et al. 2000; cited from earlier work

T1 sequence (P26663 2420-3010): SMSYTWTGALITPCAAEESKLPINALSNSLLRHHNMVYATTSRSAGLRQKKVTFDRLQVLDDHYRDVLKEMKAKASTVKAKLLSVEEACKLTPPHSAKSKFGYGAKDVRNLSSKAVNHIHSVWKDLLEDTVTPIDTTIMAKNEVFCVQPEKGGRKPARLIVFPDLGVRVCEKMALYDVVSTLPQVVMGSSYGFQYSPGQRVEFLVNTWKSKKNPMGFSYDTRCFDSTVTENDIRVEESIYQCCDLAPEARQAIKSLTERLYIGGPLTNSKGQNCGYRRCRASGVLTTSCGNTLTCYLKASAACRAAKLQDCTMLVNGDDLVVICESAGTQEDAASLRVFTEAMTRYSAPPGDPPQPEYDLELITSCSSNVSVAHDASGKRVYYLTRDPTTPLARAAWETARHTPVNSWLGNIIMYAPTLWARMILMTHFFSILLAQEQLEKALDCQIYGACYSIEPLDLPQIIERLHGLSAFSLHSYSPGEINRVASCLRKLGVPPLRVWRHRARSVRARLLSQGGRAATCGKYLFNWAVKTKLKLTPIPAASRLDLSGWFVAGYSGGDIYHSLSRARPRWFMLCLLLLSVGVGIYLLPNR
T2 sequence (P26663 2420-3010): as above

SMILES	melting point [°C]	IC50 ([1]; category symbol) [µM]	Inhibition of RdRp activity [2]	IC50 ([1]; read-out: IC50(μM) Category) [µM]	inhibitor of pestivirus replication (pestivirus)
Cc1cc(SC2=C(O)CC(CCc3ccc(O)cc3)(C3CCCC3)OC2=O)c(C(C)(C)C)cc1NS(=O)(=O)c1ccccc1 (racemic) [Example 141, (+/−)N-(5-tert-butyl-{6-cyclopentyl-4-hydroxy-6-[2-(4-hydroxy-phenyl)-ethyl]-2-oxo-5,6-dihydro-2H-pyran-3-ylsulfanyl}-2-methyl-phenyl)-benzenesulfonamide]	125 to 127	1 to 10			
Nc1ccn([C@@H]2CS[C@H](COP(=O)(O)OP(=O)(O)OP(=O)(O)O)O2)c(=O)n1 [3TC; lamivudine triphosphate]			Inhibition of RdRp activity		
O=C1CC(=O)OC(CCc2ccccc2)(C2CCCC2)C1 (stereo not drawn) [Example 35, 6-Cyclopentyl-6-phenethyl-dihydro-pyran-2,4-dione]	96 to 99	10 to 50			
CC(=O)Nc1cc(C(C)(C)C)c(SC2=C(O)CC(CCc3ccc(O)cc3)(C3CCCCC3)OC2=O)cc1C (stereo not drawn) [Example 142, N-(5-tert-butyl4-{6-cyclohexyl-4-hydroxy-6-[2-(4-hydroxy-phenyl)-ethyl]-2-oxo-5,6-dihydro-2H-pyran-3-ylsulfanyl)-2-methyl-phenyl)-acetamide]	> 154	> 50			
Cc1cc(SC2=C(O)CC(CCc3ccc(O)cc3)(C3CCCCC3)OC2=O)c(C(C)(C)C)cc1N (stereo not drawn) [Example 143, 3-(4-Amino-2-tert-butyl-5-methyl-phenylsulfanyl)-6-cyclohexyl-4-hydroxy-6-[2-(4-hydroxy-phenyl)-ethyl]-5,6-dihydro-pyran-2-one]	> 133	1 to 10			
Cc1cc(SC2=C(O)CC(CCc3ccc(O)cc3)(C3CCCC3)OC2=O)c(C(C)(C)C)cc1OS(=O)(=O)N1CCN(C)CC1 (stereo not drawn) [Example 147]	163 to 165	1 to 10			
Cc1cc(SC2=C(O)CC(CCc3ccc(O)cc3)(C3CCCC3)OC2=O)c(C(C)(C)C)cc1OCCO (stereo not drawn) [Example 148, 3-[2-tert-butyl-4-(2-hydroxy-ethoxy)-5-methyl-phenylsulfanyl]-6-cyclopentyl-4-hydroxy-6-[2-(4-hydroxy-phenyl)-ethyl]-5,6-dihydro-pyran-2-one]	113 to 115	1 to 10			
CCNS(=O)(=O)Oc1cc(C(C)(C)C)c(SC2=C(O)CC(CCc3cccc(O)c3)(C3CCCC3)OC2=O)cc1C (stereo not drawn) [Example 149, Ethyl-sulfamic acid 5-tert-butyl-4-{6-cyclopentyl-4-hydroxy-6-[2-(3-hydroxy-phenyl)-ethyl]-2-oxo-5,6-dihydro-2H-pyran-3-ylsulfanyl}-2-methyl-phenyl ester]	69 to 72	> 50			
CCCN(C1=C(O)C[C@@](CCc2cccc(O)c2)(C2CCCC2)OC1=O)c1ccccc1 [Example 155, 6-(S)-Cyclopentyl-4-hydroxy-6-[2-(3-hydroxy-phenyl)-ethyl]-3-(phenyl-propyl-amino)-5,6-dihydro-pyran-2-one]	74 to 76	1 to 10			
CCCN(C1=C(O)CC(CCc2ccc(O)cc2)(C2CCCC2)OC1=O)c1ccccc1 (stereo not drawn) [Example 159, 6-Cyclopentyl-4-hydroxy-6-[2-(4-hydroxy-phenyl)-ethyl]-3-(phenyl-propyl-amino)-5,6-dihydro-pyran-2-one]	95	1 to 10			
CCN(C1=C(O)CC(CCc2ccc(O)cc2)(C2CCCC2)OC1=O)c1ccccc1 (stereo not drawn) [Example 160, Cyclopentyl-(ethyl-phenyl-amino)-hydroxy-[2-(4-hydroxy-phenyl)-ethyl]-5,6-dihydro-pyran-2-one]	83 to 85	1 to 10			
O=C1OC(CCc2ccc(O)cc2)(C2CCCC2)CC(O)=C1N(c1ccccc1)c1ccccc1 (stereo not drawn) [Example 161, Cyclopentyl-diphenylamino-hydroxy-[2-(4-hydroxy-phenyl)-ethyl]-5,6-dihydro-pyran-2-one]	93 to 94	1 to 10			
Cc1cc(SC2=C(O)CC(C3CCCC3)(C3CCCC3)OC2=O)c(C(C)(C)C)cc1N [Example 179, 3-(4-Amino-2-tert-butyl-5-methyl-phenylsulfanyl)-6,6-dicyclopentyl-4-hydroxy-5,6-dihydro-pyran-2-one]	163 to 165			15.5	
Cc1cc(SC2=C(O)CC(C3CCCC3)(C3CCCC3)OC2=O)c(C(C)(C)C)cc1CO [Example 180, 3-(2-tert-butyl-4-hydroxymethyl-5-methyl-phenylsulfanyl)-6,6-dicyclopentyl-4-hydroxy-5,6-dihydro-pyran-2-one]	158 to 160			15	
Cc1cc(SC2=C(O)CC(C3CCCC3)(C3CCCC3)OC2=O)c(C(C)(C)C)cc1OCCO [Example 181, 3-[2-tert-butyl-4-(2-hydroxy-ethoxy)-5-methyl-phenylsulfanyl]-6,6-dicyclopentyl-4-hydroxy-5,6-dihydro-pyran-2-one]	100 to 102			36	
Cc1cc(SC2=C(O)CC(C3CCCC3)(C3CCCC3)OC2=O)c(C(C)(C)C)cc1OS(=O)(=O)c1cn(C)cn1 [Example 182, 1-methyl-1H-imidazole-4-sulfonic acid 5-tert-butyl-4-(6,6-dicyclopentyl-4-hydroxy-2-oxo-5,6-dihydro-2H-pyran-3-ylsulfanyl)-2-methyl-phenyl ester]	143 to 145	10 to 50			
CCCN(C1=C(O)CC(C2CCCC2)(C2CCCC2)OC1=O)c1cccc(NS(=O)(=O)c2ccccn2)c1 [Example 184, Pyridine-2-sulfonic acid {3-[(6,6-dicyclopentyl-4-hydroxy-2-oxo-5,6-dihydro-2H-pyran-3-yl)-propyl-amino]-phenyl}-amide]	105 to 107	10 to 50			
CCCN(C1=C(O)CC(C2CCCC2)(C2CCCC2)OC1=O)c1cccc(NS(=O)(=O)c2cccs2)c1 [Example 186, Thiophene-2-sulfonic acid {3-[(6,6-dicyclopentyl-4-hydroxy-2-oxo-5,6-dihydro-2H-pyran-3-yl)-propyl-amino]-phenyl}-amide]	92 to 95	10 to 50			
CCCN(C1=C(O)CC(C2CCCC2)(C2CCCC2)OC1=O)c1cccc(N)c1 [Example 187, 3-[(3-Amino-phenyl)-propyl-amino]-6,6-dicyclopentyl-4-hydroxy-5,6-dihydro-pyran-2-one]	173 to 175	> 50			
CCCN(CCC)CCSc1nnc2c(n1)[nH]c1ccccc12 [VP32947, 3-[((2-dipropylamino)ethyl)thio]-5H-1,2,4-triazino[5,6-b]indole]					potent inhibitor
O=C(O)CP(=O)(O)O [phosphonoacetic acid, reference compound]			Inhibition of RdRp activity		
